According to US20240300939A1 (Scorpion Therapeutics, Inc., priority 2021, published 2024):
pIC50, pKd: −log10 of the molar value.

What follows are compounds tested against T1, PI3Kα H1047R (Homo sapiens, UniProt P42336, H1047R) (assay: Surface Plasmon Resonance (SPR) binding, wortmannin-blocked protein). Settings: Biacore 8K, protein pre-incubated with 1 μM wortmannin, 25° C.
T1 construct: The protein contained a full-length p110-a subunit harboring the H1047R mutation with an N-terminal AviTag
T1 sequence (P42336 whole entry H1047R): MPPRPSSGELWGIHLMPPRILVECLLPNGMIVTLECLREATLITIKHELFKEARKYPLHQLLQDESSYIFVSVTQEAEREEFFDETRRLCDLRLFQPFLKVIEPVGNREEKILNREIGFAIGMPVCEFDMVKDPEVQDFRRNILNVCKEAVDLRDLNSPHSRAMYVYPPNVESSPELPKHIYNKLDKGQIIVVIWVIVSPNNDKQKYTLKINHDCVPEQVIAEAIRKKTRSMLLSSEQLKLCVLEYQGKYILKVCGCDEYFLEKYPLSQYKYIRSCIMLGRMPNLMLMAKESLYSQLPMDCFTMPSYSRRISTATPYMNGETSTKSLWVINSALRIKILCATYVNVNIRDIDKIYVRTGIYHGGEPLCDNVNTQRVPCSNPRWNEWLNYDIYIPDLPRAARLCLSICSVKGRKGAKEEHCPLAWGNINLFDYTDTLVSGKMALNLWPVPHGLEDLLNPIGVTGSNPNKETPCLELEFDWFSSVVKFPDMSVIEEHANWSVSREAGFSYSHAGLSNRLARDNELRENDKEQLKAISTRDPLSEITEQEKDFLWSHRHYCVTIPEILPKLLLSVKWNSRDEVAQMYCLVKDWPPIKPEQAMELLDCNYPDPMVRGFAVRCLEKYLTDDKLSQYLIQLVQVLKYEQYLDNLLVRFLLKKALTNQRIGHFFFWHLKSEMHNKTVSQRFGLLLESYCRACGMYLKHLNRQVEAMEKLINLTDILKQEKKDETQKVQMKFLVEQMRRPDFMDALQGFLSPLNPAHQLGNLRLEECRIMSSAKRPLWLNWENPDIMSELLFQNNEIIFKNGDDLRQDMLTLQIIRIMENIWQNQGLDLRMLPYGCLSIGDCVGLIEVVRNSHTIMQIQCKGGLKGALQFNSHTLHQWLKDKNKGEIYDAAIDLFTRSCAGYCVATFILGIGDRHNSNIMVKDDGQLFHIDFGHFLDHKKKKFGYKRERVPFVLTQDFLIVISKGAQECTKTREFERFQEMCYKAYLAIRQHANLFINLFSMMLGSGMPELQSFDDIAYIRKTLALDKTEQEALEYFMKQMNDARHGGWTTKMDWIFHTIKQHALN
T1 sequence (P27986 322-694 partner limits assumed): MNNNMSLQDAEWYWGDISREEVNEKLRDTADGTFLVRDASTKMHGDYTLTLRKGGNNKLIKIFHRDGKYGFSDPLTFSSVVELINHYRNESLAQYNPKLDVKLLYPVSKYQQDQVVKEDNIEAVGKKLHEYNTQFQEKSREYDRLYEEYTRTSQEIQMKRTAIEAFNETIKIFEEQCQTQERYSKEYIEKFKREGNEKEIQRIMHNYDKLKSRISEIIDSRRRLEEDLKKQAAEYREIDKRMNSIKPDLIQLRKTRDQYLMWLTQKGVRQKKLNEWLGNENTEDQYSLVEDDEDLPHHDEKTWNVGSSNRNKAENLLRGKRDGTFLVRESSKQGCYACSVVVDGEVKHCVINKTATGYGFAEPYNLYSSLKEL
Experimental: SPR experiments were performed on a Biacore 8K instrument. A biotinylated recombinant PI3Kα H1047R protein was used in this study. The protein contained a full-length p110-a subunit harboring the H1047R mutation with an N-terminal AviTag, complexed with a truncated p85-a subunit (amino acid residues 322-694). The protein was first incubated with 1 μM wortmannin for 30 min at RT to covalently block the ATP binding site, then immobilized onto a streptavidin sensor chip by flowing the protein through the sensor chip at typically 20 μg/mL concentration and 2 μL/min flow rate for 1200 seconds. Compound binding affinities were measured in the multi-cycle kinetics mode, at 90 μL/min flow rate with 90 seconds association time and 240 seconds dissociation time. The running buffer contained 50 mM Tris, pH 7.5, 150 mM NaCl, 0.01% Brij35, 1 mM DTT, 1 mM MgCl2, 0.05% Tween-20 and 2% DMSO. Temperature was maintained at 25° C. during experiments.
Compound `Cc1c([C@@H](NC(=O)N[C@H]2CC[C@H](C(N)=O)CC2)C(C)C)oc2ccc(F)cc12` (relative stereo) [Compound 42, (1R,4r)-4-(3-((R*)-1-(5-fluoro-3-methylbenzofuran-2-yl)-2-methylpropyl)ureido)cyclohexane-1-carboxamide] has a pKd of at most 6.30.

Each compound was assayed on pAKT (S473) in T47D cells (PI3Kα H1047R mutation) (assay: HTRF pAKT (S473) in T47D cells). Settings: Homo sapiens, T47D, 1 h.
Assay type: cell-based
`Cc1c([C@@H](NC(=O)Nc2cccc(N3CCC3=O)c2)C(C)C)oc2ccc(F)cc12` [Compound 104] was tested, and the pIC50 was over 6.00.
`Cc1c([C@H](NC(=O)Nc2cnc(N3C[C@H](O)[C@H]3C)nc2)C(F)(F)F)oc2c(F)cc(F)cc12` [Compound 173] gave a pIC50 of under 5.30.
For `Cc1c([C@@H](NC(=O)Nc2cnc(N3C[C@H](O)[C@H]3C)nc2)C(F)(F)F)oc2c(F)cc(F)cc12` [Compound 174], the pIC50 was over 6.00.
Compound `Cc1c([C@@H](NC(=O)Nc2cnc(NCC(C)(C)O)nc2)C(F)(F)F)oc2c(F)cc(F)cc12` [Compound 183] has a pIC50 of over 6.00.
In the case of `Cc1c([C@H](NC(=O)Nc2cnc(NCC(C)(C)O)nc2)C(F)(F)F)oc2c(F)cc(F)cc12` [Compound 184], the pIC50 was under 5.30.

Same assay, conditions: timepoint 1 hour
`Cc1c([C@@H](NC(=O)Nc2cnc(NC[C@@H](C)O)nc2)C(C)C)oc2ccc(F)cc12` [Compound 143] gave a pIC50 of over 6.00.
With `Cc1c(C(NC(=O)Nc2ccc(N)nc2)C(F)(F)F)oc2c(F)cc(F)cc12` (centres unmarked) [Compound 181] the pIC50 was under 5.30.
Compound `Cc1c(C(NC(=O)Nc2ccc(N)nc2)C(F)(F)F)oc2c(F)cc(F)cc12` (centres unmarked) [Compound 182] has a pIC50 of over 6.00.
In the case of `Cc1c([C@@H](NC(=O)Nc2cnc(N3CC(C(C)(C)O)C3)nc2)C(F)(F)F)oc2c(F)cc(F)cc12` [Compound 205], the pIC50 was over 6.00.
Compound `Cc1c([C@H](NC(=O)Nc2cnc(N3CC(C(C)(C)O)C3)nc2)C(F)(F)F)oc2c(F)cc(F)cc12` [Compound 206] has a pIC50 of under 5.30.
For `Cc1c([C@H](NC(=O)Nc2cnc(N3CC[C@@H](O)C3)nc2)C(F)(F)F)oc2c(F)cc(F)cc12` [Compound 207], the pIC50 was under 5.30.
With `Cc1c([C@@H](NC(=O)Nc2cnc(N3CC[C@@H](O)C3)nc2)C(F)(F)F)oc2c(F)cc(F)cc12` [Compound 208] the pIC50 was over 6.00.
`Cc1c([C@@H](NC(=O)Nc2cnc(N3CC[C@H](O)C3)nc2)C(F)(F)F)oc2c(F)cc(F)cc12` [Compound 209] showed a pIC50 of over 6.00.
`Cc1c([C@H](NC(=O)Nc2cnc(N3CC[C@H](O)C3)nc2)C(F)(F)F)oc2c(F)cc(F)cc12` [Compound 210] showed a pIC50 of under 5.30.
`Cc1c([C@@H](NC(=O)Nc2cnc(N3CC(C(N)=O)C3)nc2)C(F)(F)F)oc2c(F)cc(F)cc12` [Compound 211] was tested, and the pIC50 was over 6.00.
`Cc1c([C@H](NC(=O)Nc2cnc(N3CC(C(N)=O)C3)nc2)C(F)(F)F)oc2c(F)cc(F)cc12` [Compound 212] was tested, and the pIC50 was under 5.30.
